US11780826B2 (Amgen Inc., priority 2017, dated 2023)

System: Bovine cardiac myofibrils
Test: In vitro model of dose-dependent myofibril ATPase modulation (AC1.4, pyruvate kinase/lactate dehydrogenase-coupled ATPase assay at pCa25)
Format: biochemical
Conditions: concentration at which ATPase activity was 1.4-fold higher than the bottom of the dose curve, mean of a minimum of two independent tests
How it was run: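 Absorbance at 340 nm tracked ATP hydrolysis through pyruvate kinase/lactate dehydrogenase coupling (0.5 mM NADH, 1.5 mM PEP). Myofibrils from detergent-homogenized bovine heart, 1 mM ATP, pH 6.80, EGTA/CaCl2 buffering. Dose-response curves fitted with a four-parameter Hill equation.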

| Structure (SMILES) | AC1.4 [µM] |
| --- | --- |
| CS(=O)(=O)c1cccc(C(=O)N2CCSCC2C(=O)N[C@@H](c2ccc(C(F)(F)F)cc2F)C2CC2)c1 (stereo partly drawn) [Example 552, N-((R)-cyclopropyl(2-fluoro-4-(trifluoromethyl)phenyl)methyl)-4-(3-(methylsulfonyl)benzoyl)thiomorpholine-3-carboxamide] | 2.854 |
| CS(=O)(=O)C1CN(S(=O)(=O)N2CCC[C@H](C(=O)N3CCC[C@@H]3C(=O)NCc3cc(F)cc(F)c3)C2)C1 [Example 429, N-(3,5-difluorobenzyl)-1-(((3S)-1-((3-(methylsulfonyl)-1-azetidinyl)sulfonyl)-3-piperidinyl)carbonyl)-D-prolinamide] | 1.6075 |
| O=C(NCc1ccc(C(F)(F)F)cc1)[C@H]1CCCN1C(=O)[C@H]1CCCN(S(=O)(=O)N2CC(O)C2)C1 [Example 631, 1-(((3S)-1-((3-hydroxy-1-azetidinyl)sulfonyl)-3-piperidinyl)carbonyl)-N-(4-(trifluoromethyl)benzyl)-D-prolinamide] | 4.082 |
| N#CC1CN(S(=O)(=O)c2cccc(C(=O)N3CCC[C@@H]3C(=O)NCc3ccc(C(F)F)cc3)c2)C1 [Example 102, 1-((3-((3-cyano-1-azetidinyl)sulfonyl)phenyl)carbonyl)-N-(4-(difluoromethyl)benzyl)-D-prolinamide] | 0.1574 |
| CCS(=O)(=O)c1cncc(C(=O)N2[C@@H](C(=O)N[C@@H](c3cc(F)c(Cl)cc3F)C3CC3)C[C@H]3C[C@H]32)c1 [Example 160, (1R,3R,5R)-N-((R)-(4-chloro-2,5-difluorophenyl)(cyclopropyl)methyl)-2-((5-(ethylsulfonyl)-3-pyridinyl)carbonyl)-2-azabicyclo[3.1.0]hexane-3-carboxamide] | 0.274 |
| CCCCCOC1CN(S(=O)(=O)N2CCC[C@H](C(=O)N3CCC[C@@H]3C(=O)NCc3ccc(C(F)(F)F)cc3)C2)C1 [Example 536, 1-(((3S)-1-((3-(pentyloxy)-1-azetidinyl)sulfonyl)-3-piperidinyl)carbonyl)-N-(4-(trifluoromethyl)benzyl)-D-prolinamide] | 2.696 |
| O=C(NCc1ccc(C(F)(F)F)cc1)[C@H]1CCCN1C(=O)c1cccc(S(=O)(=O)N2CC(F)(F)C2)c1 [Example 461, 1-((3-((3,3-difluoro-1-azetidinyl)sulfonyl)phenyl)carbonyl)-N-(4-(trifluoromethyl)benzyl)-D-prolinamide] | 1.9174 |
| N#C[C@H]1C[C@H](S(=O)(=O)c2cccc(C(=O)N3CCCC[C@@H]3C(=O)NCc3ccc(Cl)nc3)c2)C1 [Example 420, (2R)-N-((6-chloro-3-pyridinyl)methyl)-1-((3-((trans-3-cyanocyclobutyl)sulfonyl)phenyl)carbonyl)-2-piperidinecarboxamide] | 1.5455 |
| O=C(N[C@@H](c1ccc(C(F)(F)F)cc1F)C1CC1)[C@H]1CCCN1C(=O)c1cccc(C2CCC2)c1 [Example 530, 1-(3-cyclobutylbenzoyl)-N-((R)-cyclopropyl(2-fluoro-4-(trifluoromethyl)phenyl)methyl)-D-prolinamide] | 2.614 |
| N#CC1CN(S(=O)(=O)N2CCC[C@H](C(=O)N3CCC[C@@H]3C(=O)N[C@H](c3ccc(C(F)(F)F)cc3)C(F)(F)F)C2)C1 [Example 768, 1-(((3S)-1-((3-cyano-1-azetidinyl)sulfonyl)-3-piperidinyl)carbonyl)-N-((1R)-2,2,2-trifluoro-1-(4-(trifluoromethyl)phenyl)ethyl)-D-prolinamide] | 8.033 |
| CCS(=O)(=O)c1cccc(C(=O)N2[C@@H](C(=O)N[C@@H](c3ccc(C(F)(F)F)cc3F)C3CC3)C[C@H]3C[C@H]32)c1 [Example 246, (1R,3R,5R)-N-((R)-cyclopropyl(2-fluoro-4-(trifluoromethyl)phenyl)methyl)-2-(3-(ethylsulfonyl)benzoyl)-2-azabicyclo[3.1.0]hexane-3-carboxamide] | 0.582 |
| Cc1cncc(C(=O)N2[C@@H](C(=O)N[C@@H](c3cc(F)c(C(F)(F)F)cc3F)C3CC3)C[C@H]3C[C@H]32)c1 [Example 797, (1R,3R,5R)-N-((R)-cyclopropyl(2,5-difluoro-4-(trifluoromethyl)phenyl)methyl)-2-((5-methyl-3-pyridinyl)carbonyl)-2-azabicyclo[3.1.0]hexane-3-carboxamide] | 9.447 |
| COc1ccc(CNC(=O)[C@H]2CCCN2C(=O)[C@H]2CCCN(S(=O)(=O)N3CC(C#N)C3)C2)c(C)c1 [Example 614, 1-(((3S)-1-((3-cyano-1-azetidinyl)sulfonyl)-3-piperidinyl)carbonyl)-N-(4-methoxy-2-methylbenzyl)-D-prolinamide] | 3.8655 |
| N#CC1CN(S(=O)(=O)c2cccc(C(=O)N3CCC[C@@H]3C(=O)N[C@@H](CO)c3ccc(Cl)cc3)c2)C1 [Example 305, N-((1R)-1-(4-chlorophenyl)-2-hydroxyethyl)-1-(3-((3-cyano-1-azetidinyl)sulfonyl)benzoyl)-D-prolinamide] | 0.8013 |
| N#CC1CN(S(=O)(=O)N2CCC[C@H](C(=O)N3CCC[C@@H]3C(=O)NCc3cc(F)cc(Cl)c3)C2)C1 [Example 313, N-(3-chloro-5-fluorobenzyl)-1-(((3S)-1-((3-cyano-1-azetidinyl)sulfonyl)-3-piperidinyl)carbonyl)-D-prolinamide] | 0.8424 |
| C[C@H](C(=O)NCc1ccc(Cl)c(Cl)c1)N(C)C(=O)c1cccc(S(=O)(=O)N2CC(C#N)C2)c1 [Example 341, 3-((3-cyano-1-azetidinyl)sulfonyl)-N-((1R)-2-((3,4-dichlorobenzyl)amino)-1-methyl-2-oxoethyl)-N-methylbenzamide] | 0.9606 |
| O=C(NCc1ccc(C(F)(F)F)cc1)[C@H]1CCCN1C(=O)[C@H]1CCCN(S(=O)(=O)N2CCC2c2ccccc2)C1 (stereo partly drawn) [Example 339, 1-(((3S)-1-(((2R)-2-phenyl-1-azetidinyl)sulfonyl)-3-piperidinyl)carbonyl)-N-(4-(trifluoromethyl)benzyl)-D-prolinamide,1-(((3S)-1-(((2S)-2-phenyl-1-azetidinyl)sulfonyl)-3-piperidinyl)carbonyl)-N-(4-(trifluoromethyl)benzyl)-D-prolinamide] | 0.9511 |
| COc1ccc(S(C)(=O)=O)cc1C(=O)N1CCC[C@@H]1C(=O)N[C@@H](c1ccc(C(F)(F)F)cc1F)C1CC1 [Example 602, N-((R)-cyclopropyl(2-fluoro-4-(trifluoromethyl)phenyl)methyl)-1-(2-methoxy-5-(methylsulfonyl)benzoyl)-D-prolinamide] | 3.4595 |
| N#CC1CN(S(=O)(=O)c2cccc(C(=O)N3CCC[C@@H]3C(=O)N[C@@H](CO)c3cccc(C(F)(F)F)c3)c2)C1 [Example 386, 1-(3-((3-cyano-1-azetidinyl)sulfonyl)benzoyl)-N-((1R)-2-hydroxy-1-(3-(trifluoromethyl)phenyl)ethyl)-D-prolinamide] | 1.3335 |
| CCNc1ccc(C)cc1C(=O)N1CCC[C@@H]1C(=O)N[C@@H](c1ccc(C(F)(F)F)cc1F)C1CC1 [Example 108, N-((R)-cyclopropyl(2-fluoro-4-(trifluoromethyl)phenyl)methyl)-1-(2-(ethylamino)-5-methylbenzoyl)-D-prolinamide] | 0.1689 |
| N#CC1CN(S(=O)(=O)N2CCC[C@H](C(=O)N3CCC[C@@H]3C(=O)NCCc3ccc(C(F)(F)F)cc3)C2)C1 [Example 811, 1-(((3S)-1-((3-cyano-1-azetidinyl)sulfonyl)-3-piperidinyl)carbonyl)-N-(2-(4-(trifluoromethyl)phenyl)ethyl)-D-prolinamide] | 8.7795 |
| N#CC1CN(S(=O)(=O)N2CCC[C@H](C(=O)N3CCCC[C@@H]3C(=O)NCc3ccc(C(F)(F)F)cc3)C2)C1 [Example 65, (2R)-1-(((3S)-1-((3-cyano-1-azetidinyl)sulfonyl)-3-piperidinyl)carbonyl)-N-(4-(trifluoromethyl)benzyl)-2-piperidinecarboxamide] | 0.0748 |
| Cc1noc(C(=O)N2[C@@H](C(=O)N[C@@H](c3cc(F)c(C(F)(F)F)cc3F)C3COC3)C[C@H]3C[C@H]32)c1C [Example 824, (1R,3R,5R)-N-((R)-(2,5-difluoro-4-(trifluoromethyl)phenyl)(oxetan-3-yl)methyl)-2-(3,4-dimethylisoxazole-5-carbonyl)-2-azabicyclo[3.1.0]hexane-3-carboxamide] | 8.874 |
| O=C(NCc1ccc(C(F)(F)F)cc1)[C@H]1COCCN1C(=O)c1cccc(S(=O)(=O)N2CC3(CC3)C2)c1 [Example 537, (R)-4-(3-((5-azaspiro[2.3]hexan-5-yl)sulfonyl)benzoyl)-N-(4-(trifluoromethyl)benzyl)morpholine-3-carboxamide] | 2.7025 |
| CC[C@@H](NC(=O)[C@H]1CCCN1C(=O)[C@H]1CCCN(S(=O)(=O)N2CC(C#N)C2)C1)c1cc(F)cc(F)c1 [Example 245, 1-(((3S)-1-((3-cyano-1-azetidinyl)sulfonyl)-3-piperidinyl)carbonyl)-N-((1R)-1-(3,5-difluorophenyl)propyl)-D-prolinamide] | 0.582 |
| N#CC1CN(S(=O)(=O)N2CCN[C@H](C(=O)N3CCC[C@@H]3C(=O)NCc3ccc(Cl)c(Cl)c3)C2)C1 [Example 257, 1-(((2S)-4-((3-cyano-1-azetidinyl)sulfonyl)-2-piperazinyl)carbonyl)-N-(3,4-dichlorobenzyl)-D-prolinamide] | 0.6321 |
| N#CC1CN(S(=O)(=O)N2CCC[C@H](C(=O)N3CCC[C@@H]3C(=O)NCc3cc(F)ccc3Cl)C2)C1 [Example 440, N-(2-chloro-5-fluorobenzyl)-1-(((3S)-1-((3-cyano-1-azetidinyl)sulfonyl)-3-piperidinyl)carbonyl)-D-prolinamide] | 1.7235 |
| Cc1cc(Cl)cc(CNC(=O)[C@H]2CCCN2C(=O)[C@H]2CCCN(S(=O)(=O)N3CC(C#N)C3)C2)c1 [Example 443, N-(3-chloro-5-methylbenzyl)-1-(((3S)-1-((3-cyano-1-azetidinyl)sulfonyl)-3-piperidinyl)carbonyl)-D-prolinamide] | 1.7885 |
